Oligonucleotides are written 5' to 3', each unit as a sugar letter and its base; * is a phosphorothioate linkage, no mark a phosphodiester; rarer units and linkages stand in square brackets, end groups in braces. Plain capitals give the bases only. l = locked nucleic acid (LNA); [5mC] = 5-methylcytosine; d = 2'-deoxy (DNA)

One substance from patent publication US8173428B2, “LNA oligonucleotides and the treatment of cancer” (Santaris Pharma A/S, priority 2004, dated 2012) can be followed below.

Series [1] can be described thus: Stability in human plasma. Format: in vitro ADME. Particulars: 20 μM, 37° C., up to 96 hours. Here is the method: Stability of 20 μM SEQ ID NO. 2 and SEQ ID NO. 24 in human and mouse plasma (Li-Heparine (Taconic, M&B)) at 37° C. at different time aliquots: 0, 1, 2, 4, 24, 48 and 96 hours. A commercially available ladder was also included (10 and 20 mer are visible on the PAGE). (see FIG. 1)

In series [2] the test system is 15PC3 cells. As to the kind of experiment: Caspase 3/7 activity (apoptosis) in transfected 15PC3 cells. Format: cell-based, human. Here is the method: Culturing of cells: 15PC3 was cultured in DMEM (Sigma) containing 10% fetal bovine serum, Glutamax I and gentamicin at 37° C., 95% humidity and 5% CO2. The cervical carcinoma cell line HeLa were cultured in MEM (Sigma) containing 10% fetal bovine serum, Glutamax I and gentamicin at 37° C., 95% humidity and 5% CO2. When reaching 60-70% confluency, the cells were transfected using Lipofectamine 2000 (5 μg/ml).
15PC3 cells were seeded to a density of 10000 cells per well in white 96-well plates (Nunc 136101) in DMEM the day prior to transfection. The next day cells were washed once in prewarmed OptiMEM followed by addition of 72 μl OptiMEM containing 5 μg/ml Lipofectamine-2000 (In vitrogen). Cells were incubated for 7 min before adding 18 μl oligonucleotides diluted in OptiMEM. The final oligonucleotide concentration ranged from 0.2 nM to 100 nM. After 4 hours of treatment, cells were washed in OptiMEM and 100 μl DMEM containing serum was added. Following oligonucleotide treatment, cells were allowed to recover for the period indicated before they were removed from the CO2 incubator and equilibrated to room temperature for 15 min. 100 μl of the highly sensitive Caspase 3/7-Glo™ Reagent (Promega) was added directly to the cells, and the plates were incubated for 20 min. Luminescence (luciferase activity) was recorded in a Luminoskan Ascent instrument (Thermo Labsystems). The luciferase activity is measured as Relative Light Units per seconds (RLU/s). The data was analysed using the Ascent software 2.4.2. Graphs of fold induction relative to mock were generated using MS Excel.
Staurosporine, Camptothecine or Taxol induced cells served as positive controls (see FIGS. 3, 6A and Table 4 plus Example 21).

Series [3] concerns 15PC3 cells. In words: Caspase 3/7 assay, oligonucleotide in combination with Taxol. The class given is cell-based, human. Particulars: 10 nM oligonucleotide with Taxol (10 nM or 100 nM), 48 hours and 72 hours. Here is the method: Cell culturing: Human prostate cancer 15PC3 cells (kindly provided by Dr. F Baas, Neurozintuigen Laboratory, AMC, The Netherlands) were seeded to a density of 8×10E5 cells in T75-flasks and grown for two days at 37° C. and 5% CO2 in DMEM supplemented with 10% FBS, Glutamax and Gentamicin. Two days following seeding cells were transfected with 2-10 nM SEQ ID NO. 2 using Lipofectamine at a final conc. of 7.5 μg/ml. Transfections were carried out as described by Dean et al. (1994, JBC 269 p. 16416 16424). In short cells were incubated with Lipofectamine diluted in OptiMEM for 7-10 min followed by the addition of the oligonucleotide to total volume of 8.7 ml per T75 flask. […] Cells were harvested for either mRNA extraction, Caspase 3/7 assay or fixed, stained with PI and analysed by FACS analysis.
Caspase 3/7 assay: An equal amount of 15PC3 cells ranging from 2500-10000 cells were harvested by centrifugation at the indicated periods and plated in white 96 well plates (Nunc 136101) in DMEM. 100 μl of the highly sensitive Caspase 3/7-Glo™ Reagent (Promega) was added directly to the cells in 96 well and plates were incubated for 1 hour before recording luminescence (luciferase activity) in Luminoskan Ascent instrument from Thermo Labsystems after further 1 min lag period. The luciferase activity is measured as Relative Light Units per seconds (RLU/s). […]

Series [4] can be described thus: Oligonucleotide content in cynomolgus monkey tissues (4 weeks repeat dose study). Format: in vivo, cynomolgus monkeys. Particulars: i.v. twice weekly for four weeks, then 4 weeks untreated. Here is the method: In an i.v. 4 weeks repeat dose toxicity study in cynomolgus monkeys SEQ ID NO. 2 was administered at doses of 0, 6, 15 and 60 mg/kg/occasion twice weekly for four weeks. In the groups of animals receiving 0, 15 or 60 mg/kg/occasion some animals were followed for a recovery period of 4 weeks without treatment.
Tissues including liver and kidney samples were snap frozen and stored at −70° C. for subsequent analysis.
Tissues (˜100 mg) is weighed off (tissue is kept on dry-ice before and after weighing). 500 μl extraction buffer containing proteinase K (1 mg/ml) is added. The tissue is homogenized mechanically and the homogenate is incubated over night at 37° C.
Reference samples are prepared by dissolving SEQ ID NO. 2 in extraction buffer at the relevant concentration range. Exactly 100 mg liver tissue from un-treated animals is weighed off (kept on dry-ice before and after weighing). Extraction buffer (with proteinase K, 1 mg/ml) containing the reference material is added to the tissue samples to a total volume of 0.5 ml. The tissue is mechanically homogenized and is incubated over night at 37° C. The detection signal of SEQ ID NO. 2 from these samples is used to prepare a standard curve covering the lowest and the highest concentrations found in the treated animals.
Tissue samples are transferred to 2 ml microtubes with screw caps. […]

Regarding “5′-^MeCsTs^MeCsAsastscscsastsgsgs^MeCsAsGsc-3′ (l[5mC]*lT*l[5mC]*lA*dA*dT*dC*dC*dA*dT*dG*dG*l[5mC]*lA*lG*dC) [SEQ ID NO. 2]”, in series [1], the “Stability in human plasma (degradation products)” value is listed as “No degradation products”. The “Apoptosis At 5 nM, 24 hours” value in the series with 15PC3 cells [2] (5 nM, 24 hours (Table 7, FIG. 3)) is recorded as 3.5-fold. In the series on 15PC3 cells [2] (25 nM, 24 hours (Table 7)), the “Max Apoptosis” value is given as 6.5-fold. Also, in the series on 15PC3 cells [2] (25 nM, 48 hours, 15PC3 cells), the “Maximum Induction Fold-induction of apoptosis, Caspase 3/7 assay” value is recorded as 6.9 x (25 nM, 48 hours). For the same substance, the “Fold induction of apoptosis, Caspase 3/7 assay” value with 15PC3 cells [2] (24 hours, 5 nM, 15PC3 cells, relative to mock) stood at 3.5 x. Moreover, the “Induction of apoptosis (Caspase 3/7 activity) in combination with Taxol” value with 15PC3 cells [3] is on record as “clear additive effect on the induction of apoptosis”. In series [4], the “Content in liver of recovery animals” value is “detectable”.
